The text below walks through data of PMC7958448, “Bepridil is potent against SARS-CoV-2 in vitro” (Proceedings of the National Academy of Sciences of the …, 2021).

In assay [1] the test system is SARS-CoV-2 in A549/ACE2 cells. Format: cell-based. The following applies: 6 repeats.
In assay [2] the test system is SARS-CoV-2 in Vero E6 cells. It is filed as cell-based.
Assay [3] has as its system SARS-CoV-2 in Vero E6 cells. Description: microbe, parasite or virus in culture. The following applies: Severe acute respiratory syndrome coronavirus 2, Vero C1008, 72 h; read-out: EC50 in inhibiting SARS-CoV-2. Format: cell-based.
For the next assay, the system named is Ebola virus. The following applies: mouse, in vivo, 12 mg/kg; cited from earlier work.
Assay [4] has as its system SARS-CoV-2 in A549/ACE2 cells. Briefly: microbe, parasite or virus in culture. Format: cell-based. The following applies: Severe acute respiratory syndrome coronavirus 2, A549-ACE2, 96 h; read-out: EC50 in inhibiting SARS-CoV-2.
Assay [5] addresses T1, SARS-CoV-2 main protease (Mpro) (Severe acute respiratory syndrome coronavirus 2, UniProt P0DTD1). The following applies: 1 mM medicine, relative to control without small molecule.
Assay [6] concerns the target T1, SARS-CoV-2 main protease (Mpro). Description: biochemical.
The test system of assay [7] is SARS-CoV-2 entry into mammalian cell hosts. To be noted: cell-based study; read-out: EC50 in inhibiting the SARS-CoV-2 entry; cited from earlier work.

Usually EC50 stands for the concentration giving half of the maximal effect. For orientation: IC50 means the concentration at which inhibition is half-maximal. As usually defined, the Hill slope is the slope factor of the fitted curve.

Molecules are shown by their SMILES. Like-named read-outs stand apart in the source and are kept apart here.

In the case of `CC(C)COCC(CN(Cc1ccccc1)c1ccccc1)N1CCCC1` (centres unmarked) [Bepridil], the “SARS-CoV-2 induced CPE” value in assay [1] (A549/ACE2, bepridil 6.25 µM) is recorded as “No CPE”; in assay [1] (A549/ACE2, bepridil 12.5 µM) it was “No CPE”; in assay [1] (A549/ACE2, bepridil 25 µM), “No CPE”; in assay [1] (A549/ACE2, bepridil 50 µM), “No CPE”; in assay [2], “No CPE”; in assay [2] (Vero E6, bepridil 6.25 µM, 6 repeats), “No CPE”. In addition, in assay [2] (Vero E6, bepridil 25 µM, 6 repeats), the “SARS-CoV-2 induced CPE” value is listed as “No CPE”. In addition, the EC50 came out at 860 nM in assay [3] and 460 nM in assay [4]. Also, in the assay with Ebola virus, the “protection from Ebola virus infections” value is 100%.

As to `CCN1CC(CCN2CCOCC2)C(c2ccccc2)(c2ccccc2)C1=O` (centres unmarked) [Doxapram], the “activation of Mpro” value in assay [5] was above 15%.

`Cc1cccc(C)c1OCC(=O)N[C@@H](Cc1ccccc1)[C@@H](O)C[C@H](Cc1ccccc1)NC(=O)[C@H](C(C)C)N1CCCNC1=O` [Lopinavir] returned an IC50 in assay [6] (50 nM Mpro, 10 µM Sub3, 20% DMSO, mean ± SE, triplicate) of 486000 ± 2000 nM. This compound came in with a Hill slope in assay [6] (four-parameter variable slope fit of the IC50 curve) of 29.9 ± 2.4.

Turning to `Cc1c(O)cccc1C(=O)N[C@@H](CSc1ccccc1)[C@H](O)CN1C[C@H]2CCCC[C@H]2C[C@H]1C(=O)NC(C)(C)C` [Nelfinavir], in assay [7], the EC50 was 1000 nM.

Take `CN1CCN(CC(=O)N2c3ccccc3C(=O)Nc3cccnc32)CC1` [Pirenzepine]: the “activation of Mpro” value in assay [5] is reported as above 15%.

As to `CCOc1ccccc1OC(c1ccccc1)C1CNCCO1` (centres unmarked) [Reboxetine], in assay [5], the “activation of Mpro” value is listed as above 15%.

For the compound `CCOC(=O)/C=C/[C@H](C[C@@H]1CCNC1=O)NC(=O)[C@@H](CC(=O)[C@@H](NC(=O)c1cc(C)on1)C(C)C)Cc1ccc(F)cc1` [Rupintrivir], in assay [6], the Hill slope amounted to 1.4 ± 0.2.
